Laboratory results taken from ChEMBL document CHEMBL6114985, “From Dyrk1A inhibitors to a novel class of antiviral agents: Targeting Enterovirus EV-A71 with 2-aryl-substituted thiophene scaffolds” (Eur J Med Chem, 2025).
Calls of active or inactive are those of the source. The calls are words filed in the database; no cut-off is given here.

Key:
Enterovirus A71 [1] = assay: Antiviral activity against Enterovirus A71 TW/2231/98 infected in human RD cells assessed as reduction in cytopathic effect incubated for 3 days; format: functional, organism-based; conditions: Enterovirus A, TW/2231/98, RD, 72 h
[2] = Cytotoxicity against human RD cells assessed as reduction in cell growth incubated for 3 days by MTT assay; format: toxicity, cell-based; conditions: time 3 day
[3] = Selectivity index, ratio of CC50 for human RD cells to EC50 for antiviral activity against enterovirus A71 TW/2231/98 infected in human RD cells; format: toxicity, cell-based; conditions: read-out: Ratio CC50/EC50
[4] = biological target: T1, Dual specificity tyrosine-phosphorylation-regulated kinase 1A (Homo sapiens, UniProt Q13627); assay: Inhibition of DYRK1A (unknown origin) at 25 uM incubated for 1 hr relative to control
[5] = Lipophilicity, logD of compound by UPLC-MS analysis; format: physicochemical; conditions: octanol/water
[6] = Metabolic stability in mouse liver microsome assessed as half life incubated for 120 mins by HPLC-MS/MS; format: ADME; conditions: liver microsomes
[7] = Metabolic stability in mouse liver microsome assessed as intrinsic clearance incubated for 120 mins by HPLC-MS/MS; format: ADME; conditions: liver microsomes, read-out: CLH
[8] = Metabolic stability in human liver microsome assessed as half life incubated for 120 mins by HPLC-MS/MS; format: ADME; conditions: liver microsomes
[9] = Metabolic stability in human liver microsome assessed as intrinsic clearance incubated for 120 mins by HPLC-MS/MS; format: ADME; conditions: liver microsomes, read-out: CLH
[10] = Stability in mouse plasma assessed as half life by HPLC-MS/MS; format: ADME, cell-free
[11] = Stability in human plasma assessed as half life by HPLC-MS/MS; format: ADME, cell-free
[12] = Plasma protein binding in mouse by rapid equilibrium dialysis based HPLC-MS/MS analysis; format: ADME, cell-free; conditions: read-out: PPB (converted)
[13] = Plasma protein binding in human by rapid equilibrium dialysis based HPLC-MS/MS analysis; format: ADME, cell-free; conditions: read-out: PPB (converted)
Enterovirus A71 [14] = assay: Antiviral activity against Enterovirus A71 2231 assessed as reduction in viral replication; format: functional, organism-based; conditions: Enterovirus A
Enterovirus A71 [15] = assay: Antiviral activity against Enterovirus A71 4798 assessed as reduction in viral replication; format: functional, organism-based; conditions: Enterovirus A
enterovirus D68 [16] = assay: Antiviral activity against Enterovirus D68 2795 assessed as reduction in viral replication; format: functional, organism-based; conditions: Enterovirus D
enterovirus D68 [17] = assay: Antiviral activity against Enterovirus D68 KY 18953 assessed as reduction in viral replication; format: functional, organism-based; conditions: Enterovirus D
Coxsackievirus = assay: Antiviral activity against Coxsackievirus assessed as reduction in viral replication; format: functional, organism-based
Human rhinovirus sp. = assay: Antiviral activity against Human rhinovirus 71803 assessed as reduction in viral replication; format: functional, organism-based
Influenza A virus = assay: Antiviral activity against influenza A virus assessed as reduction in viral replication; format: functional, organism-based
[18] = biological target: T1, Dual specificity tyrosine-phosphorylation-regulated kinase 1A; assay: Inhibition of DYRK1A (unknown origin)
[19] = Cytotoxicity against human A549 cells infected with Human adenovirus; format: toxicity, cell-based
[20] = Cytotoxicity against human A549 cells infected with Herpes Simplexvirus; format: toxicity, cell-based; conditions: A549 cells infected with herpes simplex virus
Enterovirus A71 [21] = assay: Antiviral activity against Enterovirus A71 TW/2231/98 infected in human RD cells assessed as inhibition of viral plaque formation at 1.25 uM incubated for 3 to 5 days by crystal violet staining based plaque reduction assay relative to control; format: functional; conditions: Enterovirus A, TW/2231/98, RD, time 3-5 day
Enterovirus A71 [22] = assay: Antiviral activity against Enterovirus A71 TW/2231/98 infected in human RD cells assessed as effect on viral replication incubated for 3 to 5 days by crystal violet staining based plaque reduction assay; format: functional, organism-based; conditions: time 3-5 day
Enterovirus A71 [23] = assay: Antiviral activity against Enterovirus A71 TW/2231/98 infected in human RD cells assessed as inhibition of viral plaque formation at 2.5 uM incubated for 3 to 5 days by crystal violet staining based plaque reduction assay relative to control; format: functional; conditions: Enterovirus A, TW/2231/98, RD, time 3-5 day
Enterovirus A71 [24] = assay: Antiviral activity against Enterovirus A71 TW/2231/98 infected in human RD cells assessed as inhibition of viral plaque formation at 5 uM incubated for 3 to 5 days by crystal violet staining based plaque reduction assay relative to control; format: functional; conditions: Enterovirus A, TW/2231/98, RD, time 3-5 day
Herpes Simplexvirus [25] = assay: Antiviral activity against Herpes Simplexvirus infected in human A549 cells assessed as inhibition of viral replication at 0.95 uM relative to control; format: functional
Enterovirus A71 [26] = assay: Antiviral activity against Enterovirus A71 TW/2231/98 infected in human RD cells assessed as effect on viral protein level at 10 uM preincubated with cells at 1 hr followed by compound addition and measured at 0 to 3 hrs post infection by time of addition based immunoblotting analysis; format: functional, organism-based
Enterovirus A71 [27] = assay: Antiviral activity against Enterovirus A71 TW/2231/98 infected in human RD cells assessed as effect on viral RNA level at 10 uM preincubated with cells at 1 hr followed by compound addition and measured at 0 to 3 hrs post infection by time of addition based RT-qPCR analysis; format: functional, organism-based
Enterovirus A71 [28] = assay: Antiviral activity against Enterovirus A71 TW/2231/98 infected in human RD cells assessed as effect on viral titer at 10 uM preincubated with cells at 1 hr followed by compound addition and measured at 0 to 3 hrs post infection by time of addition based plaque assay; format: functional, organism-based
Enterovirus A71 [29] = assay: Antiviral activity against Enterovirus A71 TW/2231/98 infected in human RD cells assessed as reduction in viral protein level at 10 uM preincubated with cells at 1 hr followed by compound addition and measured after 9 hrs post infection by time of addition based immunoblotting analysis; format: functional, organism-based
Enterovirus A71 [30] = assay: Antiviral activity against Enterovirus A71 TW/2231/98 infected in human RD cells assessed as reduction in viral RNA level at 10 uM preincubated with cells at 1 hr followed by compound addition and measured after 9 hrs post infection by time of addition based RT-qPCR analysis; format: functional, organism-based
Enterovirus A71 [31] = assay: Antiviral activity against Enterovirus A71 TW/2231/98 infected in human RD cells assessed as reduction in viral titer at 10 uM preincubated with cells at 1 hr followed by compound addition and measured after 9 hrs post infection by time of addition based plaque assay; format: functional, organism-based
in vitro = conditions: human, A549 cells
Human adenovirus sp. = assay: microbe, parasite or virus in culture; conditions: A549
Herpes Simplexvirus [32] = assay: microbe, parasite or virus in culture; conditions: A549

Row | Structure (SMILES) | EC50 (Enterovirus A71 [1]) [µM] | CC50 at 72 h [2] [µM] | selectivity ratio [3] | inhibition [4] [%] | logD [5] | half-life [6] [min] | microsomal CLint [7] [µL/min/mg] | half-life [8] [min] | microsomal CLint [9] [µL/min/mg] | half-life [10] [min] | half-life [11] [min] | EC50 (Enterovirus A71 [14]) [µM] | EC50 (Enterovirus A71 [15]) [µM] | EC50 (enterovirus D68 [16]) [µM] | EC50 (enterovirus D68 [17]) [µM] | EC50 (Coxsackievirus) [µM] | EC50 (Human rhinovirus sp.) [µM] | EC50 (Influenza A virus) [µM] | other results
1 | COc1ccc(F)c(C(=O)Nc2cncc(-c3cccs3)c2)c1 | 4.3 | 75.7 | 17.6 | 0 | 3.52 | 11 | 127 | 31.5 | 44 | > 240 | > 240 | 4.3 | 5.5 | 3.6 | 3.5 | 3.9 | 4.8 | > 10 | fraction unbound [12]: 0.038; fraction unbound [13]: 0.0165
2 | COc1ccc(F)c(C(=O)Nc2cncc(-c3cc(-c4cccnc4)cs3)c2)c1 | 4.4 | 12.8 | 2.9 | 95 | 3.44 | 14 | 104 | 55 | 27 | > 240 | > 240 | 4.4 | 4.2 | 4.7 | 3.4 | 2.8 | 4.2 | > 10 | IC50 [18]: 0.038 µM; CC50 [19]: > 10 µM; CC50 [20]: > 15 µM; inhibition at 1.25 µM (Enterovirus A71 [21]): 20%; Activity (Enterovirus A71 [22]): Active; inhibition at 2.5 µM (Enterovirus A71 [23]): ~60%; inhibition at 5 µM (Enterovirus A71 [24]): 80%; inhibition at 0.95 µM (Herpes Simplexvirus [25]): 50%; Activity (Enterovirus A71 [26]): inactive; Activity (Enterovirus A71 [27]): inactive; Activity (Enterovirus A71 [28]): inactive; Activity (Enterovirus A71 [29]): Active; Activity (Enterovirus A71 [30]): Active; Activity (Enterovirus A71 [31]): Active; selectivity ratio (in vitro): > 15; EC50 (Human adenovirus sp.): > 10 µM; EC50 (Herpes Simplexvirus [32]): 1 µM
